Data taken from patent US20160050895A1, “TRANSGENIC NON-HUMAN ORGANISMS WITH NON-FUNCTIONAL TSPO GENES” (AUSTRALIAN NUCLEAR SCIENCE AND TECHNOLOGY ORGANIZATION, priority 2013, published 2016).

Legend:
TSPO [1] = assay: Receptor film autoradiography of tissue sections with [3H]PK11195 and [125I]CLINDE; format: binding, mouse; conditions: spleen, kidney, testis sections from TSPO-/- mice; 3 nM [125I]CLINDE, 1 nM [3H]PK11195
Procedure: Snap-frozen tissues were sectioned at 20 μm in a cryostat, thaw mounted on poly-L-lysine-coated slides and stored at −80° C. until day of experiment. On the day of the experiment, slides were thawed at room temperature and air dried with a cool stream of air. Total and non-specific binding were determined by incubation with 1 nM of 3H-PK11195 with or without the presence of 3 μM of PK11195 in 130 mM TRIS-HCl buffer (pH 7.4) at room temperature for 20 minutes. Following incubation, the slides were briefly dipped twice in 130 mM TRIS-HCl buffer, washed twice for 5 minutes in fresh 130 mM TRIS-HCl at room temperature. […] Images were analysed with Quantity One imaging analysis program (Bio-Rad, Hercules, Calif. USA); to assess the level of 3H-PK11195 binding, regions of interest were drawn over the tissue and an average optical density/mm^2 was calculated. […]
The organs including brain, retina, heart, kidney and testes used for film autoradiography were dissected from wild-type (TSPO^+/+), heterozygous (TSPO^+/−), and homozygous (TSPO^−/−) mice and snap-frozen in liquid nitrogen. […] Tritium standards (Amersham Biosciences, Uppsala, Sweden) co-exposed with the organ sections on each Hyperfilm-^3H (Kodak Film) at 4° C. for 60 days, were used to quantify the autoradiographically measured binding. […]

TSPO [2] = target: TSPO (Mus musculus, UniProt P50637); assay: as above; format: binding; set-up: Snap-frozen tissues were sectioned at 20 μm in a cryostat; from tissue; host or cells: mouse organ sections (brain, retina/eye, heart, adrenal, kidney, testis, spleen), C57BL/6 background
Procedure: Snap-frozen tissues were sectioned at 20 μm in a cryostat, thaw mounted on poly-L-lysine-coated slides and stored at −80° C. until day of experiment. On the day of the experiment, slides were thawed at room temperature and air dried with a cool stream of air. Total and non-specific binding were determined by incubation with 1 nM of 3H-PK11195 with or without the presence of 3 μM of PK11195 in 130 mM TRIS-HCl buffer (pH 7.4) at room temperature for 20 minutes. Following incubation, the slides were briefly dipped twice in 130 mM TRIS-HCl buffer, washed twice for 5 minutes in fresh 130 mM TRIS-HCl at room temperature. The slides were finally briefly rinsed 3 times in chilled distilled H2O, dried under a cool stream of air and allowed to air dried overnight. Sections were exposed to Kodak BioMax MR film along with tritium microscales with known activity concentrations in X-ray film cassettes. Films were developed after 33 days and digitized using a GS800 Calibrated Densitometer (Bio-Rad, Hercules, Calif., USA). Images were analysed with Quantity One imaging analysis program (Bio-Rad, Hercules, Calif. USA); to assess the level of 3H-PK11195 binding, regions of interest were drawn over the tissue and an average optical density/mm^2 was calculated. Data obtained from an individual film, subject to interfilm variations, were normalized against other films through the optical density oftritium microscales.
The organs including brain, retina, heart, kidney and testes used for film autoradiography were dissected from wild-type (TSPO^+/+), heterozygous (TSPO^+/−), and homozygous (TSPO^−/−) mice and snap-frozen in liquid nitrogen. Cryostat organ sections at 18 μm were placed onto superfrost slides (Menzel-Glaser, Braunschweig, Germany) and stored in the dark at −20° C. for no longer than 1 week before the experiment. […] Tritium standards (Amersham Biosciences, Uppsala, Sweden) co-exposed with the organ sections on each Hyperfilm-^3H (Kodak Film) at 4° C. for 60 days, were used to quantify the autoradiographically measured binding. The hyperfilm was developed using Kodak GBX developer and fixer (Sigma Aldrich, St. Louis, Mo., U.S.A.). The hyperfilm was air-dried overnight before being scanned using the ArtixScan 1800f flatbed scanner (Microtek, Hsinchu, Taiwan), with greyscale using a magnification of 400% and an optical resolution of 2400 pixels per inch. No pre-scanning manipulation or filter was applied.
Tissue sections from TSPO^+/+, TSPO^+/− and TSPO^−/− mice were incubated at room temperature for 20 min in 170 mM Tris-HCl pH 7.4 containing 1 nM [^3H]PK11195 (specific activity 84 Ci/mmol; Perkin Elmer, Waltham, Mass., USA), washed twice for 5 min in 170 mM Tris-HCl, rinsed with 3 dips in ice-cold MilliQ H2O, and dried. […] Displacement binding was carried out in the presence of PK11195 (10 μM), CLINDE (10 μM) and PBR-11 (10 μM).

SMILES: CC[C@@H](C)N(C)C(=O)c1cc2ccccc2c(-c2ccccc2Cl)n1 [[^3H]PK11195]
- binding in TSPO-/- tissue (TSPO [1]): at background level and not displaceable
- selectivity for TSPO (TSPO [2]; in vitro, validated against TSPO-/- null background): high selectivity
- Specific binding in tissue sections (TSPO [2]; spleen, kidney, testis sections from TSPO+/+ and TSPO+/- mice, 3 nM [125I]CLINDE, 1 nM [3H]PK11195): clearly visible
